# Experimental data taken from patent publication US4175081A, “5-Substituted thiadiazole ureas” (priority 1977, dated 1979).
# Tests used:
# Crabgrass (CG) [1] = assay: Pre-emergence herbicide test; assay type: in vivo, Digitaria sanquinalis; settings: Digitaria sanguinalis, pre-emergence, 336 h; 8 lb/acre; two weeks after treatment
# Method in brief: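 Crabgrass (Digitaria sanquinalis) was surface seeded in 3' plastic pots of potting soil, covered with screened soil, and watered by sub-irrigation in greenhouse trays. Pots were seeded one day before spraying in a hood with a moving belt and fixed nozzle. Plants stayed in the greenhouse on sub-irrigation, and pre-emergence control was rated visually two weeks after treatment.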
# Johnson grass (JG) [2] = assay: Pre-emergence herbicide test; assay type: in vivo, Sorgum helepense; settings: Sorghum halepense, 336 h, 8 lb/acre, two weeks after treatment
# Method in brief: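 Pots seeded one day before spraying; compound applied pre-emergence at 8 lbs/acre (or 4 lbs/acre) in 38 gallons/acre spray volume. Sub-irrigated in greenhouse; injury/control rated visually two weeks after treatment.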
# Amaranth pigweed (PW) [3] = assay: Pre-emergence herbicide test; assay type: in vivo, Amaranthus retroflexus; settings: 336 h, 8 lb/acre, two weeks after treatment
# Method in brief: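 Pigweed was surface-seeded in potted soil one day before spraying at 8 lbs compound per acre, or 4 lbs/acre, in 38 gallons per acre. Pots were kept in the greenhouse with sub-irrigation only; injury or control was rated visually two weeks after treatment.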
# Turnip (TP) [4] = assay: Pre-emergence herbicide test; assay type: in vivo, Brassica sp.; settings: Brassica rapa, pre-emergence, 336 h; 8 lb/acre; two weeks after treatment
# Method in brief: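 Turnip (Brassica sp.) seeds were surface sown in 3' plastic pots of potting soil, covered with a thin layer of screened soil, and sub-irrigated in greenhouse trays. Pots were seeded one day ahead of treatment, sprayed pre-emergence under a hood with a fixed nozzle and moving belt, then kept in the greenhouse.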
# Cotton (CT) [5] = assay: Pre-emergence herbicide test; assay type: in vivo, Gossypium hirsutum var. DPL smooth leaf; settings: Gossypium hirsutum, 336 h, 8 lb/acre, two weeks after treatment
# Method in brief: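 Crop and weed species seeded one day before treatment, then sprayed pre-emergence at 8 lbs actual compound per acre (also 4 lbs/acre formulations) in 38 gallons per acre. Pots kept in greenhouse with sub-irrigation only; injury or control visually rated two weeks after treatment.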
# Corn (CN) [6] = assay: Pre-emergence herbicide test; assay type: in vivo; settings: Zea mays, 336 h, 8 lb/acre, two weeks after treatment
# Method in brief: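 Four corn seeds per pot, sown at seed-diameter depth one day before spraying, got soil surface treatment at 8 lbs/acre (4 lbs/acre formulations also prepared) in 38 gallons/acre. Pots were greenhouse-held with sub-irrigation only. Injury or control was scored visually two weeks after treatment.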
# Bean (BN) [7] = assay: Pre-emergence herbicide test; assay type: in vivo, Phaseolus vulgaris var. Black Valentine; settings: Phaseolus vulgaris, 336 h, 8 lb/acre, two weeks after treatment
# Method in brief: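 Black Valentine bean was seeded in potting soil one day before spraying. Compound was applied pre-emergence at 8 lbs/acre (also 4 lbs/acre) in 38 gallons per acre. Plants were sub-irrigated and injury or control was rated visually after two weeks.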
# Crabgrass (CG) [8] = assay: Post-emergence herbicide test; assay type: in vivo, Digitaria sanquinalis; settings: Digitaria sanguinalis, post-emergence, 336 h; 8 lb/acre; two weeks after treatment
# Method in brief: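 Crabgrass (Digitaria sanquinalis) was surface seeded individually in 3' plastic pots of potting soil, covered with screened soil, and watered by sub-irrigation in greenhouse trays. Planting was staggered so seedlings reached the target stage together. Post-emergence sprays were applied in a hood with a removable belt and fixed nozzle, and control was visually rated two weeks after treatment.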
# Johnson grass (JG) [9] = assay: Post-emergence herbicide test; assay type: in vivo, Sorgum helepense; settings: Sorghum halepense, 336 h, 8 lb/acre, two weeks after treatment
# Method in brief: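 Greenhouse pot-grown seedlings sprayed post-emergence at 8 lbs compound per acre (some at 4 lbs/acre) in 38 gallons per acre spray volume. Sub-irrigated thereafter. Injury/control rated visually two weeks after treatment.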
# Barnyard grass (BG) = assay: Post-emergence herbicide test; assay type: in vivo; settings: Echinochloa crus-galli, 336 h, 8 lb/acre, two weeks after treatment
# Method in brief: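 Greenhouse pot-grown barnyard grass seedlings sprayed post-emergence at 8 lbs active compound per acre (some at 4 lbs/acre) in 38 gallons per acre, then sub-irrigated. Injury or control rated visually two weeks after treatment.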
# Amaranth pigweed (PW) [10] = assay: Post-emergence herbicide test; assay type: in vivo, Amaranthus retroflexus; settings: 336 h, 8 lb/acre, two weeks after treatment
# Method in brief: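 Pot-grown pigweed was sprayed post-emergence at the 1–2 true-leaf stage with compound at rates equivalent to 8 lbs per acre (formulations also prepared for 4 lbs/acre) in 38 gallons per acre, using a hood with fixed nozzle. Plants were sub-irrigated in the greenhouse, and injury or control was rated visually two weeks after treatment.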
# Turnip (TP) [11] = assay: Post-emergence herbicide test; assay type: in vivo, Brassica sp.; settings: Brassica rapa, post-emergence, 336 h; 8 lb/acre; two weeks after treatment
# Method in brief: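 A greenhouse post-emergence herbicide test on turnip. Seeds were sown on the surface of potting soil in 3' plastic pots, lightly covered with screened soil and watered from below. Planting was timed so seedlings had 1 or 2 true leaves above the cotyledons at spraying, done in a hood with a fixed nozzle. Control or injury was scored by eye after two weeks.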
# Cotton (CT) [12] = assay: Post-emergence herbicide test; assay type: in vivo, Gossypium hirsutum var. DPL smooth leaf; settings: Gossypium hirsutum, post-emergence, 336 h; 8 lb/acre; two weeks after treatment
# Method in brief: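 Cotton (Gossypium hirsutum var. DPL smooth leaf) was grown in 3' plastic pots of potting soil, four seeds per pot, planted at a depth equal to the seed diameter and watered by sub-irrigation. At the stage of expanded cotyledons with the first true leaf 1' long, plants were sprayed post-emergence in a hood with a fixed nozzle over a moving belt. Percent control was rated visually two weeks later.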
# Corn (CN) [13] = assay: Post-emergence herbicide test; assay type: in vivo; settings: Zea mays, 336 h, 8 lb/acre, two weeks after treatment
# Method in brief: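 Greenhouse seedlings grown in potting soil and sprayed post-emergence at 8 lbs compound/acre (formulations also made for 4 lbs/acre) in 38 gallons/acre spray volume. Watering by sub-irrigation only. Injury or control rated visually two weeks after treatment.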
# Bean (BN) [14] = assay: Post-emergence herbicide test; assay type: in vivo, Phaseolus vulgaris var. Black Valentine; settings: Phaseolus vulgaris, post-emergence, 336 h; 8 lb/acre; two weeks after treatment
# Method in brief: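 Snapbean (Phaseolus vulgaris var. Black Valentine) was tested post-emergence. Four seeds were sown in 3' plastic pots of potting soil at a depth equal to the seed diameter, then sub-irrigated in greenhouse trays. Planting dates were staggered so plants were sprayed once primary leaves had expanded, with the growing point at the primary leaf nodes.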
# [15] = system: variety of crops and weed species; assay: Pre- and post-emergence herbicide tests, overall assessment of Tables III-VI; assay type: in vivo; settings: data of Tables III-VI
# Description: All crop and weed species were planted individually in 3' plastic pots containing potting soil. Four seeds each of corn, cotton, and snapbeans were seeded to a depth equal to the diameter of the seed. All other species were surface seeded and sprinkled with screened soil in an amount sufficient to cover the seed. Immediately after planting, all pots were watered by sub-irrigation in greenhouse trays. Pots for the pre-emergence phase were seeded one day before treatment.
# Compounds were tested at rates of application equivalent to 8 lbs. of actual compound per acre in a spray volume of 38 gallons per acre. Spray hood constants required to deliver the above volume are as follows:
# Two weeks after treatment, pre- and post-emergence injury or control was visually rated, and the results were as shown in the following tables. Pre-emergence data are provided in TABLE III and post-emergence data are provided in TABLE IV, for compounds having the formula illustrated in TABLE I. Correspondingly, pre-emergence and post-emergence data, respectively, are set forth in TABLES V AND VI, for compounds having the formula illustrated in TABLE II.
smiles,measurement,setting,value
CCc1nnc(NC(=O)N(C)C)s1 [Example 20],pest or weed control at 8966.8 g/ha,Crabgrass (CG) [1],90%
same,pest or weed control at 8966.8 g/ha,Johnson grass (JG) [2],70%
same,pest or weed control at 8966.8 g/ha,Amaranth pigweed (PW) [3],90%
same,pest or weed control at 8966.8 g/ha,Turnip (TP) [4],100%
same,pest or weed control at 8966.8 g/ha,Cotton (CT) [5],30%
same,pest or weed control at 8966.8 g/ha,Corn (CN) [6],30%
same,pest or weed control at 8966.8 g/ha,Bean (BN) [7],10%
same,pest or weed control at 8966.8 g/ha,Crabgrass (CG) [8],20%
same,pest or weed control at 8966.8 g/ha,Johnson grass (JG) [9],20%
same,pest or weed control at 8966.8 g/ha,Barnyard grass (BG),20%
same,pest or weed control at 8966.8 g/ha,Amaranth pigweed (PW) [10],100%
same,pest or weed control at 8966.8 g/ha,Turnip (TP) [11],90%
same,pest or weed control at 8966.8 g/ha,Cotton (CT) [12],80%
same,pest or weed control at 8966.8 g/ha,Corn (CN) [13],30%
same,pest or weed control at 8966.8 g/ha,Bean (BN) [14],50%
same,"herbicidal effectiveness / selectivity, in words",[15],more selective when applied to a certain crop or weed species
